According to patent US9586962B2, “Disubstituted octahydropyrrolo [3,4-C] pyrroles as orexin receptor modulators” (Janssen Pharmaceutica NV, priority 2011, dated 2017):

What follows are molecules tested against T1, human orexin 2 receptor (Homo sapiens (Human), UniProt O43614) (assay: Human orexin 2 receptor Ca2+ mobilization assay (FLIPR, PFSK cells, orexin B 100 nM)). Conditions: modified Cheng-Prusoff correction, read-out: OR 2 Kb.
T1 sequence (O43614 whole entry): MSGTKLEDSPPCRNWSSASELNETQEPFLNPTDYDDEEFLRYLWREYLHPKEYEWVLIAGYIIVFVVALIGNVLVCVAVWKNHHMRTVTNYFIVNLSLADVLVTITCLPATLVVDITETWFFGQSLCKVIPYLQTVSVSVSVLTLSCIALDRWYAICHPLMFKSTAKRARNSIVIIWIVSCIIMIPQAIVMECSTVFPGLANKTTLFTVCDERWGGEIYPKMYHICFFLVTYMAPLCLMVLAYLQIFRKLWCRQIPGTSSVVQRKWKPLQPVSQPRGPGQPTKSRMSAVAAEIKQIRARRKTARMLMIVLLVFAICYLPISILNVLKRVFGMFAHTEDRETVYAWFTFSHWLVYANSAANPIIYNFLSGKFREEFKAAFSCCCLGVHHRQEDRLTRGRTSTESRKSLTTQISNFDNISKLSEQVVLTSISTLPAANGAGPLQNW
Assay type: cell-based
For O=C(c1c(F)cccc1-n1nccn1)N1CC2CN(c3cnc4cc(F)c(F)cc4n3)CC2C1 (stereo not drawn) [Example 246, (5-(6,7-Difluoroquinoxalin-2-yl)hexahydropyrrolo[3,4-c]pyrrol-2(1H)-yl)(2-fluoro-6-(2H-1,2,3-triazol-2-yl)phenyl)methanone], the Kb was 0.011 µM.
COc1cccc(N2CC3CN(C(=O)c4ccccc4-c4cccs4)CC3C2)n1 (stereo not drawn) [Example 137, 2-(6-Methoxypyridin-2-yl)-5-[(2-thiophen-2-ylphenyl)carbonyl]octahydro pyrrolo[3,4-c]pyrrole] was tested, and the Kb was 0.025 µM.
Cc1cc(N2CC3CN(C(=O)c4ccc(F)cc4-n4nccn4)CC3C2)nc(C(F)(F)F)n1 (stereo not drawn) [Example 99, 2-{[4-Fluoro-2-(2H-1,2,3-triazol-2-yl)phenyl]carbonyl}-5-[6-methyl-2-(trifluoromethyl)pyrimidin-4-yl]octahydropyrrolo[3,4-c]pyrrole] was tested, and the Kb was 0.016 µM.
Molecule Cc1cc(C)nc(N2CC3CN(C(=O)c4ccc(F)c5ccccc45)CC3C2)n1 (stereo not drawn) [Example 90, 2-(4,6-Dimethylpyrimidin-2-yl)-5-[(4-fluoronaphthalen-1-yl)carbonyl]octahydro-pyrrolo[3,4-c]pyrrole] has a Kb of 0.025 µM.
In the case of Cc1cc(C)nc(N2CC3CN(C(=O)c4cccc(F)c4-c4ccccn4)CC3C2)n1 (stereo not drawn) [Example 367, (5-(4,6-Dimethylpyrimidin-2-yl)hexahydropyrrolo[3,4-c]pyrrol-2(1H)-yl)(3-fluoro-2-(pyridin-2-yl)phenyl)methanone], the Kb is reported as 0.003 µM.
For Cc1cc(C)nc(N2CC3CN(C(=O)c4ccccc4-c4ncn(C)n4)CC3C2)n1 (stereo not drawn) [Example 308, 2-(4,6-Dimethylpyrimidin-2-yl)-5-{[2-(1-methyl-1H-1,2,4-triazol-3-yl)phenyl]carbonyl}octahydropyrrolo[3,4-c]pyrrole], the Kb was 0.005 µM.
COc1ccc(C(=O)N2CC3CN(c4ncc(Cl)c(C)n4)CC3C2)c(-n2nccn2)c1 (stereo not drawn) [Example 378, 2-(5-Chloro-4-methylpyrimidin-2-yl)-5-{[4-methoxy-2-(2H-1,2,3-triazol-2-yl)phenyl]carbonyl}octahydropyrrolo[3,4-c]pyrrole] showed a Kb of 0.002 µM.
For COc1ccc(C(=O)N2CC3CN(c4cnc5cc(F)c(F)cc5n4)CC3C2)c(-n2nccn2)c1 (stereo not drawn) [Example 389, (5-(6,7-Difluoroquinoxalin-2-yl)hexahydropyrrolo[3,4-c]pyrrol-2(1H)-yl)(4-methoxy-2-(2H-1,2,3-triazol-2-yl)phenyl)methanone], the Kb was 0.014 µM.
In the case of Cc1nc(N2CC3CN(C(=O)c4ccccc4-c4ncn(C)n4)CC3C2)nc(C)c1Cl (stereo not drawn) [Example 320, 2-(5-Chloro-4,6-dimethylpyrimidin-2-yl)-5-{[2-(1-methyl-1H-1,2,4-triazol-3-yl)phenyl]carbonyl}octahydropyrrolo[3,4-c]pyrrole], the Kb is reported as 0.002 µM.
For COc1ccnc(N2CC3CN(C(=O)c4cc(F)ccc4-c4ncccn4)CC3C2)n1 (stereo not drawn) [Example 150, 2-[(5-Fluoro-2-pyrimidin-2-ylphenyl)carbonyl]-5-(4-methoxypyrimidin-2-yl)octahydropyrrolo[3,4-c]pyrrole], the Kb was 0.04 µM.
For COc1ccc(C(=O)N2CC3CN(c4nccc(-c5ccccc5)n4)CC3C2)c(OC)c1 (stereo not drawn) [Example 167, 2-[(2,4-Dimethoxyphenyl)carbonyl]-5-(4-phenylpyrimidin-2-yl)octahydropyrrolo[3,4-c]pyrrole], the Kb was 0.631 µM.
With COc1ccc(C(=O)N2CC3CN(c4nc5ccc(Cl)cc5s4)CC3C2)c(OC)c1 (stereo not drawn) [Example 163, 6-Chloro-2-{5-[(2,4-dimethoxyphenyl)carbonyl]hexahydropyrrolo[3,4-c]pyrrol-2(1H)-yl}-1,3-benzothiazole] the Kb was 0.501 µM.
In the case of Cc1nc(N2CC3CN(C(=O)c4ccccc4-c4ncn(C)n4)CC3C2)ncc1F (stereo not drawn) [Example 312, 2-(5-Fluoro-4-methylpyrimidin-2-yl)-5-{[2-(1-methyl-1H-1,2,4-triazol-3-yl)phenyl]carbonyl}octahydropyrrolo[3,4-c]pyrrole], the Kb is reported as 0.011 µM.
Cc1ccnc(N2CC3CN(C(=O)c4ccccc4-c4cccs4)CC3C2)n1 (stereo not drawn) [Example 32, 2-(4-Methylpyrimidin-2-yl)-5-[(2-thiophen-2-ylphenyl)carbonyl]octahydro-pyrrolo[3,4-c]pyrrole] showed a Kb of 0.032 µM.
O=C(c1ccccc1-n1nccn1)N1CC2CN(c3nc4ccccc4o3)CC2C1 (stereo not drawn) [Example 144, 2-[5-{[2-(2H-1,2,3-Triazol-2-yl)phenyl]carbonyl}hexahydropyrrolo[3,4-c]pyrrol-2(1H)-yl]-1,3-benzoxazole] was tested, and the Kb was 0.063 µM.
Work on COc1ccc(C(=O)N2CC3CN(c4nc(C)cc(C)n4)CC3C2)c(-c2ncccn2)c1 (stereo not drawn) [Example 272, (5-(4,6-Dimethylpyrimidin-2-yl)hexahydropyrrolo[3,4-c]pyrrol-2(1H)-yl)(4-methoxy-2-(pyrimidin-2-yl)phenyl)methanone] yielded a Kb of 0.007 µM.
Molecule O=C(c1cccc(F)c1-n1nccn1)N1CC2CN(c3ncc4cc(F)ccc4n3)CC2C1 (stereo not drawn) [Example 242, (3-Fluoro-2-(2H-1,2,3-triazol-2-yl)phenyl)(5-(6-fluoroquinazolin-2-yl)hexahydropyrrolo[3,4-c]pyrrol-2(1H)-yl)methanone] has a Kb of 0.013 µM.
CN(C)c1cc(N2CC3CN(C(=O)c4c(F)cccc4-n4nccn4)CC3C2)nc(C(F)(F)F)n1 (stereo not drawn) [Example 3, 6-[5-{[2-Fluoro-6-(2H-1,2,3-triazol-2-yl)phenyl]carbonyl}hexahydropyrrolo[3,4-c]pyrrol-2(1H)-yl]-N,N-dimethyl-2-(trifluoromethyl)pyrimidin-4-amine] showed a Kb of 0.014 µM.
For COc1cc(N2CC3CN(C(=O)c4ccccc4-n4nccn4)CC3C2)nc(N(C)C)n1 (stereo not drawn) [Example 5, 4-Methoxy-N,N-dimethyl-6-[5-{[2-(2H-1,2,3-triazol-2-yl)phenyl]carbonyl}hexahydropyrrolo-[3,4-c]pyrrol-2(1H)-yl]pyrimidin-2-amine], the Kb was 0.005 µM.
Cc1cc(N2CC3CN(C(=O)c4c(F)cccc4-c4ncccn4)CC3C2)nc(C(F)(F)F)n1 (stereo not drawn) [Example 117, 2-[(2-Fluoro-6-pyrimidin-2-ylphenyl)carbonyl]-5-[6-methyl-2-(trifluoromethyl)pyrimidin-4-yl]octahydropyrrolo[3,4-c]pyrrole] gave a Kb of 0.008 µM.
Cc1cc(C)nc(N2CC3CN(C(=O)c4cccc5c4-c4ccccc4C5)CC3C2)n1 (stereo not drawn) [Example 326, 2-(4,6-Dimethylpyrimidin-2-yl)-5-(9H-fluoren-4-ylcarbonyl)octahydropyrrolo[3,4-c]pyrrole] was tested, and the Kb was 0.004 µM.
Cc1ccnc(N2CC3CN(C(=O)c4ccccc4-c4cccs4)CC3C2)c1 (stereo not drawn) [Example 136, 2-(4-Methylpyridin-2-yl)-5-[(2-thiophen-2-ylphenyl)carbonyl]octahydropyrrolo[3,4-c]pyrrole] was tested, and the Kb was 0.05 µM.

Each molecule was assayed against T1, human orexin 2 receptor (assay: Human orexin 2 receptor radioligand binding ([3H]EMPA competition, HEK293 cells)). Conditions: HEK293 cells expressing human orexin-2 receptor, read-out: OR 2 Ki.
Cc1cc(C)nc(N2CC3CN(C(=O)c4cc(F)ccc4-c4cccn4C)CC3C2)n1 (stereo not drawn) [Example 493, 2-(4,6-Dimethylpyrimidin-2-yl)-5-{[5-fluoro-2-(1-methyl-1H-pyrrol-2-yl)phenyl]carbonyl}octahydropyrrolo[3,4-c]pyrrole] was tested, and the Ki was 10 µM.
Cc1cc(CO)nc(N2CC3CN(C(=O)c4cccc(F)c4-c4nc(C)no4)CC3C2)n1 (stereo not drawn) [Example 436, {2-[5-{[3-Fluoro-2-(3-methyl-1,2,4-oxadiazol-5-yl)phenyl]carbonyl}hexahydropyrrolo[3,4-c]pyrrol-2(1H)-yl]-6-methylpyrimidin-4-yl}methanol] gave a Ki of 0.021 µM.
Work on Cc1cc(C)nc(N2CC3CN(C(=O)c4cc(F)ccc4-c4cscn4)CC3C2)n1 (stereo not drawn) [Example 494, 2-(4,6-Dimethylpyrimidin-2-yl)-5-{[5-fluoro-2-(1,3-thiazol-4-yl)phenyl]carbonyl}octahydropyrrolo[3,4-c]pyrrole] yielded a Ki of 0.18 µM.
In the case of Cc1cc(C)nc(N2CC3CN(C(=O)c4cccc5c4OCC5)CC3C2)n1 (stereo not drawn) [Example 463, 2-(2,3-Dihydro-1-benzofuran-7-ylcarbonyl)-5-(4,6-dimethylpyrimidin-2-yl)octahydropyrrolo[3,4-c]pyrrole], the Ki is reported as 4 µM.
For Cc1ccc(-c2ncccn2)c(C(=O)N2CC3CN(c4nc(C)c(C)c(C)n4)CC3C2)n1 (stereo not drawn) [Example 445, 2-[(6-Methyl-3-pyrimidin-2-ylpyridin-2-yl)carbonyl]-5-(4,5,6-trimethylpyrimidin-2-yl)octahydropyrrolo[3,4-c]pyrrole], the Ki was 0.027 µM.
Cc1cc(C)nc(N2CC3CN(C(=O)c4c(F)cccc4-c4cn(C)cn4)CC3C2)n1 (stereo not drawn) [Example 482, 2-(4,6-Dimethylpyrimidin-2-yl)-5-{[2-fluoro-6-(1-methyl-1H-imidazol-4-yl)phenyl]carbonyl}octahydropyrrolo[3,4-c]pyrrole] showed a Ki of 0.03 µM.
Molecule CCCOc1ccc(C)cc1C(=O)N1CC2CN(c3cc(N(C)C)nc(C)n3)CC2C1 (stereo not drawn) [Example 430, N,N,2-Trimethyl-6-{5-[(5-methyl-2-propoxyphenyl)carbonyl]hexahydropyrrolo[3,4-c]pyrrol-2(1H)-yl}pyrimidin-4-amine] has a Ki of 0.27 µM.
Cc1cc(C)nc(N2CC3CN(C(=O)c4c(F)cccc4-c4nnc[nH]4)CC3C2)n1 (stereo not drawn) [Example 437, 2-(4,6-Dimethylpyrimidin-2-yl)-5-{[2-fluoro-6-(1H-1,2,4-triazol-5-yl)phenyl]carbonyl}octahydropyrrolo[3,4-c]pyrrole] showed a Ki of 0.27 µM.
COc1ncc(-c2cccc(F)c2C(=O)N2CC3CN(c4nc(C)cc(C)n4)CC3C2)s1 (stereo not drawn) [Example 479, 2-(4,6-Dimethylpyrimidin-2-yl)-5-{[2-fluoro-6-(2-methoxy-1,3-thiazol-5-yl)phenyl]carbonyl}octahydropyrrolo[3,4-c]pyrrole] was tested, and the Ki was 0.524 µM.
With COc1cnc(C(=O)N2CC3CN(c4nc(C)c(C)c(C)n4)CC3C2)c(-n2nccn2)c1 (stereo not drawn) [Example 444, 2-{[5-Methoxy-3-(2H-1,2,3-triazol-2-yl)pyridin-2-yl]carbonyl}-5-(4,5,6-trimethylpyrimidin-2-yl)octahydropyrrolo[3,4-c]pyrrole] the Ki was 0.02 µM.
Molecule Cc1cc(C)nc(N2CC3CN(C(=O)c4ccccc4-c4cn(Cc5ccccc5)nn4)CC3C2)n1 (stereo not drawn) [Example 434, 2-{[2-(1-Benzyl-1H-1,2,3-triazol-4-yl)phenyl]carbonyl}-5-(4,6-dimethylpyrimidin-2-yl)octahydropyrrolo[3,4-c]pyrrole] has a Ki of 0.394 µM.
